{"source": "patent US9133195B2", "about": "“Quaternary ammonium salt compounds of spirocyclopiperazines, preparation methods and uses thereof” (Peking University, priority 2006, dated 2015)", "key": {"[1]": {"test_system": "Kunming mice", "test": "Acetic acid-induced writhing test", "format": "in vivo", "settings": "31.0 umol/kg s.c., acetic acid i.p. after 30 min, writhing counted for 10 min; for inhibition in vivo at 31 µmol/kg: Mus musculus, sc", "procedure": "Kunming mice, male and female in half, were randomly divided into groups with 8 mice in each group. The following groups were established: the normal saline (NS) control group, in which normal saline was administered by subcutaneous injection (s.c.); the test groups, in which 31.0 umol/kg quaternary ammonium salts compounds of piperazines of the present invention was administered by s.c. All drugs were dissolved in normal saline before use. The drug was injected at the dose of 0.1 ml/10 g. After 30 min, 0.2 ml of 0.6% acetic acid was injected intraperitoneally for each mouse. After 2˜3 min, the writhing reactions such as abdominal constriction, stretch of body and hind limbs, and hip raise occurred. Five minutes after acetic acid injection, the numbers of writhing was counted for 10 min. The percentage of inhibition was determined by using the following formula (1): Inhibition %=[(The numbers of writhing of control group−the numbers of writhing of drag injection group)/the numbers of writhing of control group]×100% (1) 2 Experimental Results\nThis experiment was carried out according to that of Example 36."}, "[2]": {"test": "Body temperature in mice", "format": "in vivo", "settings": "2.0 mg/kg", "procedure": "(§1) All the following tests were carried out by using compound LXM-10 according to the routine methods."}, "[3]": {"test_system": "mice", "test": "Function of motion coordination (rota-rod)", "format": "in vivo", "settings": "2.0 mg/kg", "procedure": "as §1\nThe effect of muscle-relaxed effect on the analgesic effect of LXM-10 was also excluded."}, "[4]": {"test_system": "mice", "test": "Spontaneous motion in mice", "format": "in vivo", "settings": "2.0 mg/kg", "procedure": "as §1"}}, "note": "Where a name gives a salt, the structure may show the parent alone."}
{"compound": "8-(4-chloro-3-pyridyl)-5,8-diazaspiro[4.5]decane bromide [LXM-24]", "values": [{"measurement": "Inhibition(%) of writhing", "setting": "[1]", "value": 46, "unit": "%"}]}
{"compound": "c1ccc(N2CC[N+]3(CCCC3)CC2)cc1", "note": "(as salt: bromide) [LXM-18, 8-phenyl-5,8-diazaspiro[4.5]decane bromide]", "values": [{"measurement": "melting point", "value": "208 to 209", "unit": "°C"}]}
{"compound": "COc1ccc(N2CC[N+]3(CCCC3)CC2)cc1", "note": "(as salt: bromide) [LXM-19, 8-(p-methoxyphenyl)-5,8-diazaspiro[4.5]decane bromide]", "values": [{"measurement": "melting point", "value": "201 to 203", "unit": "°C"}]}
{"compound": "CC1CC[N+]2(CC1)CCN(CCc1ccccc1)CC2", "note": "(as salt: chloride) [LXM-6, 3-methyl-9-(β-phenylethyl)-6,9-diazaspiro[5.5]undecane chloride]", "values": [{"measurement": "melting point", "value": "230 °C (dec.)"}]}
{"compound": "C=CCN1CC[N+]2(CC1)CC(C)OC(C)C2", "note": "(stereo not shown) (as salt: chloride) [LXM-28, 2,4-dimethyl-9-allyl-3-oxo-6,9-diazaspiro[5.5]undecane chloride]", "values": [{"measurement": "melting point", "value": "236 °C (dec.)"}]}
{"compound": "CC1C[N+]2(CCN(C/C=C/c3ccccc3)CC2)CC(C)O1", "note": "(stereo not shown) (as salt: chloride) [LXM-30, 2,4-dimethyl-9-cinnamenyl-3-oxo-6,9-diazaspiro[5.5] undecane chloride]", "values": [{"measurement": "melting point", "value": "266 to 268", "unit": "°C"}]}
{"compound": "CC1C[N+]2(CCN(CCc3ccccn3)CC2)CC(C)O1", "note": "(stereo not shown) (as salt: chloride) [LXM-31]", "values": [{"measurement": "melting point", "value": 247, "unit": "°C"}]}
{"compound": "CN1C(=O)CN=C(c2ccccc2)c2cc(Cl)ccc21", "note": "[Diazepam, reference compound]", "values": [{"measurement": "Rectal temperature after treatment", "setting": "[2]; 0.5 h", "value": "35.1 ± 0.26", "unit": "°C"}, {"measurement": "Rectal temperature after treatment", "setting": "[2]; 2.0 h", "value": "35.9 ± 0.35", "unit": "°C"}, {"measurement": "Rectal temperature after treatment", "setting": "[2]; 3.5 h", "value": "36.5 ± 0.31", "unit": "°C"}, {"measurement": "Rectal temperature", "setting": "[2]; before treatment", "value": "37.6 ± 0.17", "unit": "°C"}, {"measurement": "Time of falling down from rota-rod after treatment", "setting": "[3]; 0.5 h", "value": "48.8 ± 14.0", "unit": "s"}, {"measurement": "Time of falling down from rota-rod after treatment", "setting": "[3]; 2.0 h", "value": "73.3 ± 14.1", "unit": "s"}, {"measurement": "Time of falling down from rota-rod after treatment", "setting": "[3]; 3.5 h", "value": "111.7 ± 6.70", "unit": "s"}, {"measurement": "Time of falling down from rota-rod", "setting": "[3]; before treatment", "value": "102.5 ± 6.48", "unit": "s"}, {"measurement": "Numbers of movement after treatment", "setting": "[4]; 0.5 h", "value": "5.37 ± 1.64"}, {"measurement": "Numbers of movement after treatment", "setting": "[4]; 2.0 h", "value": "10.8 ± 3.10"}, {"measurement": "Numbers of movement after treatment", "setting": "[4]; 3.5 h", "value": "18.2 ± 3.61"}, {"measurement": "Numbers of movement", "setting": "[4]; before treatment", "value": "51.5 ± 5.15"}]}
{"compound": "CC1CC[N+]2(CC1)CCN(CCc1ccccc1)CC2", "note": "[LXM-6, 3-methyl-9-(β-phenylethyl)-6,9-diazaspiro[5.5]undecane chloride]", "values": [{"measurement": "inhibition in vivo at 31 µmol/kg", "setting": "[1]", "value": 30, "unit": "%"}]}
{"compound": "CC1C[N+]2(CCN(CCc3cccc(F)c3)CC2)CC(C)O1", "note": "(stereo not drawn) [LXM-8, 2,4-dimethyl-9-β-(m-fluorophenyl)ethyl-3-oxo-6,9-diazaspiro[5.5]undecane chloride]", "values": [{"measurement": "inhibition in vivo at 31 µmol/kg", "setting": "[1]", "value": 55, "unit": "%"}]}
{"compound": "CC1C[N+]2(CCN(CCc3cccc([N+](=O)[O-])c3)CC2)CC(C)S1", "note": "(stereo not drawn) [LXM-9, 2,4-dimethyl-9-β-(m-nitrophenyl)ethyl-3-thio-6,9-diazaspiro[5.5]undecane chloride]", "values": [{"measurement": "inhibition in vivo at 31 µmol/kg", "setting": "[1]", "value": 62, "unit": "%"}]}
{"compound": "Clc1ccc(N2CC[N+]3(CCCC3)CC2)nn1", "note": "[LXM-11, 8-(4-chloro-2,3-pyridazinyl)-5,8-diazaspiro[4.5]decane chloride]", "values": [{"measurement": "inhibition in vivo at 31 µmol/kg", "setting": "[1]", "value": 44, "unit": "%"}]}
{"compound": "O=[N+]([O-])c1cccc(N2CC[N+]3(CCCC3)CC2)c1", "note": "[LXM-16, 8-(m-nitrophenyl)-5,8-diazaspiro[4.5]decane bromide]", "values": [{"measurement": "inhibition in vivo at 31 µmol/kg", "setting": "[1]", "value": 61, "unit": "%"}]}
{"compound": "c1ccc(N2CC[N+]3(CCCC3)CC2)cc1", "note": "[LXM-18, 8-phenyl-5,8-diazaspiro[4.5]decane bromide]", "values": [{"measurement": "inhibition in vivo at 31 µmol/kg", "setting": "[1]", "value": 20, "unit": "%"}]}
{"compound": "COc1ccc(N2CC[N+]3(CCCC3)CC2)cc1", "note": "[LXM-19, 8-(p-methoxyphenyl)-5,8-diazaspiro[4.5]decane bromide]", "values": [{"measurement": "inhibition in vivo at 31 µmol/kg", "setting": "[1]", "value": 56, "unit": "%"}]}
{"compound": "Oc1cccc(N2CC[N+]3(CCCC3)CC2)c1", "note": "[LXM-20, 8-(m-hydroxyphenyl)-5,8-diazaspiro[4.5]decane bromide]", "values": [{"measurement": "inhibition in vivo at 31 µmol/kg", "setting": "[1]", "value": 53, "unit": "%"}]}
{"compound": "Fc1cccc(N2CC[N+]3(CCCC3)CC2)c1", "note": "[LXM-21, 8-(m-fluorophenyl)-5,8-diazaspiro[4.5]decane bromide]", "values": [{"measurement": "inhibition in vivo at 31 µmol/kg", "setting": "[1]", "value": 47, "unit": "%"}]}
{"compound": "N#Cc1cccc(N2CC[N+]3(CCCC3)CC2)c1", "note": "[LXM-22, 8-(m-cyanophenyl)-5,8-diazaspiro[4.5]decane bromide]", "values": [{"measurement": "inhibition in vivo at 31 µmol/kg", "setting": "[1]", "value": 56, "unit": "%"}]}
{"compound": "CCOC(=O)c1cccc(N2CC[N+]3(CCCC3)CC2)c1", "note": "[LXM-23, 8-(m-ethoxycarbonylphenyl)-5,8-diazaspiro[4.5]decane bromide]", "values": [{"measurement": "inhibition in vivo at 31 µmol/kg", "setting": "[1]", "value": 39, "unit": "%"}]}
{"compound": "c1cncc(N2CC[N+]3(CCCC3)CC2)c1", "note": "[LXM-25, 8-(3-pyridyl)-5,8-diazaspiro[4.5]decane bromide]", "values": [{"measurement": "inhibition in vivo at 31 µmol/kg", "setting": "[1]", "value": 37, "unit": "%"}]}
{"compound": "C=CCN1CC[N+]2(CC1)CC(C)OC(C)C2", "note": "(stereo not shown) [LXM-28, 2,4-dimethyl-9-allyl-3-oxo-6,9-diazaspiro[5.5]undecane chloride]", "values": [{"measurement": "inhibition in vivo at 31 µmol/kg", "setting": "[1]", "value": 49, "unit": "%"}]}
{"compound": "CC1C[N+]2(CCN(C/C=C/c3ccccc3)CC2)CC(C)O1", "note": "(stereo not shown) [LXM-30, 2,4-dimethyl-9-cinnamenyl-3-oxo-6,9-diazaspiro[5.5] undecane chloride]", "values": [{"measurement": "inhibition in vivo at 31 µmol/kg", "setting": "[1]", "value": 43, "unit": "%"}]}
{"compound": "CC1C[N+]2(CCN(CCc3ccccn3)CC2)CC(C)O1", "note": "(stereo not shown) [LXM-31]", "values": [{"measurement": "inhibition in vivo at 31 µmol/kg", "setting": "[1]", "value": 58, "unit": "%"}]}
